Experimental data as given in patent US4818753A, “Synthesis and method of use for 2, 4 diaminoquinazoline” (SRI International, priority 1987, dated 1989).
Where two headings read alike, the source gives them in different places.

Tests used:
Format in all cases: cell-based
[1] = system: Candida; assay: Growth of Candida cultures with compound and/or SMX (FIG. 1)
[2] = system: Ca. guilliermondii MY1019; assay: Agar dilution assay; settings: Meyerozyma guilliermondii, MY1019, 48 h, read-out: Minimum inhibitory concentration
Text: (§1) For the agar dilution assay, the test panel consisted of 18 yeastlike and 3 Filamentus fungii. Four media were used. These were yeast nitrogen base dextrose (0.5% agar) (YNBDA); pH 5.5; YNBDA with pH adjusted to pH 7.5; and micrological agar (MA), pH 7.0; and Sabouraud dextrose agar, pH 5.7. The media was manufactured by Difco (Detroit, MI) and prepared according to the manufacturer's instructions.
(§2) The test compounds were solubilized in 10% aqueous DMSO; the control drug, Nystatin, was solublized in 10% aqueous DMF. The drugs were serially diluted twofold in sterile water to yield concentrations of 1.28 mg/ml to […]. One ml of diluted drug was added to 9 ml of cooled (50° C.) molten agar in plastic petri plates to yield final drug concentrations in the agar ranging from 128 to 0.063 ug/ml. Appropriate solvent and media control plates were prepared as well, and all plates stored in the dark at 4° C. overnight. The yeast cultures, maintained in yeast maltose (YM; Difco), were transferred to fresh YM medium and incubating overnight at 37° C. with shaking at 250 rpm. After incubation each culture was diluted in sterile saline to yield concentrations of 3×10^5 to 3×10^6 cfu/ml. Isolates of aspergillis and penicillium were made on potato dextrose agar slants, and spore suspensions were made following vigorous shaking with sterile glass beads. The spore preparation were used as inocula for these fungi.
(§3) Each prepared place was inoculated with the 21-member panel using a Denleigh multipoint inoculator (Sussex, England). The inoculator delivers approximately 1 ul to the agar surface, resulting in inoculation of from 3×10^2 to 3×10^3 cfu. The plates were incubated at 28° C. for 48 h, and the minimum inhibitory concentrations (MIC) of each drug were recorded as the lower concentration of the drug permitting no growth or growth of less than 3 cfu/spot.

[3] = system: Ca. parapsilosis MY1010; assay: Agar dilution assay; settings: Lodderomyces parapsilosis, MY1010, 48 h, read-out: Minimum inhibitory concentration
Text: as §1, §2, §3

[4] = system: Ca. albicans MY1013; assay: Agar dilution assay; settings: Candida albicans, MY1013, 48 h, read-out: Minimum inhibitory concentration
Text: as §1, §2, §3

[5] = system: Ca. tropicalis MY1011; assay: Agar dilution assay; settings: Candida tropicalis, MY1011, 48 h, read-out: Minimum inhibitory concentration
Text: as §1, §2, §3

[6] = system: Ca. albicans MY1029; assay: Agar dilution assay; settings: Candida albicans, MY1029, 48 h, read-out: Minimum inhibitory concentration
Text: as §1, §2, §3

[7] = system: Cr. neoformans MY1146; assay: Agar dilution assay; settings: Cryptococcus neoformans, MY1146, 48 h, read-out: Minimum inhibitory concentration
Text: as §1, §2, §3

[8] = system: A. flavus MF0383; assay: Agar dilution assay; settings: Aspergillus flavus, MF0383, 48 h, read-out: Minimum inhibitory concentration
Text: as §1, §2, §3

[9] = system: Ca. albicans MY0992; assay: Agar dilution assay; settings: Candida albicans, MY0992, 48 h, read-out: Minimum inhibitory concentration
Text: as §1, §2, §3

[10] = system: Ca. albicans MY1055; assay: Agar dilution assay; settings: Candida albicans, MY1055, 48 h, read-out: Minimum inhibitory concentration
Text: as §1, §2, §3

[11] = system: Ca. rugosa MY1022; assay: Agar dilution assay; settings: Diutina rugosa, MY1022, 48 h, read-out: Minimum inhibitory concentration
Text: as §1, §2, §3

[12] = system: Microsporum gypseum (14683); assay: Broth dilution assay, F12; settings: Nannizzia gypsea
Method: (§4) Both broth dilution and agar dilution assays were used to assess the antifungal activity of the compounds of the invention. The cultures were maintained in Sabouraud dextrose broth (SDB) and diluted with […]. 2.5 l of SDB was prepared and distributed into sterile vessels as follows: 49 ml into 1 vessel, 27 ml into 3 vessels, 45 ml into 2 vessels.
(§5) Five mg/ml concentration of each compound was prepared using DMSO as the solvent; warming and sonication were necessary to dissolve each compound completely. The compounds were then diluted in SDB according to the following protocol:
(§6) 5. 1 ug/ml--5 ml (3)+45 ml SDB
(§7) The compound at each concentration in SDB was then dispensed into 6 tubes each containing 4 ml […]. Controls (without any compound) were also prepared to insure that the solvent itself was not fungicidal or fungistatic.
(§8) Cultures were grown in SDB for 24 h at 30° C. C. albicans and C. neoformans were diluted 1:10 in SDB before inoculation. Inoculation volume for yeasts was 2 drops of diluted cells per tube. The fungal cultures were homogenized before inoculation. The same volume was added, but without dilution. All tubes were incubated at room temperature on a rotating wheel. After 16 h of incubation at room temperature, the fungistatic assay was set up on agar plates. […] Yeasts were inoculated onto SDA (the corresponding agar) plates and fungi onto mycosel agar plates. These plates were then incubated at room temperature.

[13] = system: Epidermophyton floccosum (15693); assay: Broth dilution assay, F4
Method: as §4, §5, §6, §7, §8

CCCCCCCCc1ccc2nc(N)nc(N)c2c1C [2,4-Diamino-5-methyl-6-n-octylquinazoline]
30 µg/mL: MIC ([12]; Table 2, Sabouraud Dextrose Broth pH 5.5, read-out: S Fungistatic) | MFC ([13]; Table 2, F4, Sabouraud Dextrose Broth pH 5.5, read-out: C Fungicidal)
1 µg/mL: MIC ([13]; Table 2, F4, Sabouraud Dextrose Broth pH 5.5, read-out: S Fungistatic)
32 µg/mL: MIC ([6]; MA pH 7.0) | MIC ([6]; YNBDA pH 7.5) | MIC ([10]; MA pH 7.0) | MIC ([10]; YNBDA pH 7.5) | MIC ([11]; pH 7.5, YNBDA pH 7.5)
128 µg/mL: MIC ([4]; SDA pH 5.7) | MIC ([5]; SDA pH 5.7) | MIC ([7]; YNBDA pH 5.5)
16 µg/mL: MIC ([2]; MA pH 7.0) | MIC ([2]; YNBDA pH 7.5) | MIC ([4]; MA pH 7.0) | MIC ([4]; YNBDA pH 7.5) | MIC ([5]; MA pH 7.0) | MIC ([5]; YNBDA pH 7.5) | MIC ([7]; SDA pH 5.7) | MIC ([8]; YNBDA pH 7.5) | MIC ([9]; MA pH 7.0) | MIC ([9]; YNBDA pH 7.5)
64 µg/mL: MIC ([8]; MA pH 7.0) | MIC ([11]; pH 7, MA pH 7.0)
no cfus: cfus after 9 h ([1]; 100 ug of each compound (with SMX), after 9 h)
synergistic activity: synergistic activity with sulfa drug ([1]; with sulfa drug (SMX in FIG. 1))
8 µg/mL: MIC ([3]; YNBDA pH 7.5) | MIC ([7]; YNBDA pH 7.5)
10^2 cfu/ml: cfu/ml after 9 h ([1]; 10 ug compound + 100 ug SMX, after 9 h)
4 µg/mL: MIC ([3]; MA pH 7.0) | MIC ([7]; MA pH 7.0)
100 µg/mL: MFC ([12]; Table 2, Sabouraud Dextrose Broth pH 5.5, read-out: C Fungicidal)
> 128 µg/mL: MIC ([2]; SDA pH 5.7) | MIC ([2]; YNBDA pH 5.5) | MIC ([3]; SDA pH 5.7) | MIC ([3]; YNBDA pH 5.5) | MIC ([4]; YNBDA pH 5.5) | MIC ([5]; YNBDA pH 5.5) | MIC ([6]; SDA pH 5.7) | MIC ([6]; YNBDA pH 5.5) | MIC ([8]; SDA pH 5.7) | MIC ([8]; YNBDA pH 5.5) | MIC ([9]; SDA pH 5.7) | MIC ([9]; YNBDA pH 5.5) | MIC ([10]; SDA pH 5.7) | MIC ([10]; YNBDA pH 5.5) | MIC ([11]; pH 5.5, YNBDA pH 5.5)
10^4 cfu/ml: cfu/ml after 36 h ([1]; 10 ug of compound alone)
zero: cfu/ml after 36 h ([1]; 10 ug compound + 100 ug SMX)
